From the NIST ThermoML archive (doi:10.1016/j.fluid.2013.09.030)

Experiments:
[1] = refractive index (Na D-line) (dimensionless); xn = mol fraction of the nth substance listed; settings: 298.15 K, 101 kPa, Liquid, Standard Abbe refractometry
[2] = xn = mol fraction of the nth substance listed; settings: 298.15 K, 101 kPa, Liquid, Vibrating tube method
[3] = Liquid; for mass density: 298.15 K, 101.33 kPa, Vibrating tube method; for vapor or sublimation pressure: Ebulliometric method (Recirculating still)
[4] = Boiling temperature at pressure P; settings: Liquid, Ebulliometric method (Recirculating still)
[5] = refractive index (Na D-line) (dimensionless); settings: 298.15 K; 101.33 kPa; Liquid; Standard Abbe refractometry

COC(=O)Oc1ccccc1 [methyl phenyl carbonate] + COC(=O)OC
Settings	mass density, [2] [kg/m3]	refractive index, [1]
x1 = 0.0499	1069.88	1.3764
x1 = 0.1	1076.1	1.3863
x1 = 0.2001	1087.37	1.4038
x1 = 0.2999	1097.32	1.419
x1 = 0.4	1106.17	1.4336
x1 = 0.5002	1114.08	1.4463
x1 = 0.6	1121.17	1.4575
x1 = 0.7007	1127.6	1.468
x1 = 0.8003	1133.42	1.4774
x1 = 0.8991	1138.71	1.4853
x1 = 0.9493	1141.22	1.4901

COC(=O)Oc1ccccc1 [methyl phenyl carbonate]
Settings	mass density [kg/m3]	refractive index
[3]	1143.63	–
[5]	–	1.4948

[4]
Settings	Boiling temperature at pressure P [°C]
3 kPa	105.66
5 kPa	118.02
10 kPa	136.72
15 kPa	148.41
20 kPa	157.08
25 kPa	164.10
30 kPa	170.01
35 kPa	174.97
40 kPa	179.58
45 kPa	183.76
50 kPa	187.52
55 kPa	190.94
60 kPa	194.06
65 kPa	197.11
70 kPa	199.87
75 kPa	202.31
80 kPa	204.76
85 kPa	207.20
90 kPa	209.54
95 kPa	211.70
100 kPa	213.56
101.3 kPa	214.33
102.1 kPa	214.51

CO [methanol]
Settings	mass density [kg/m3]	refractive index
[3]	786.69	–
[5]	–	1.3267

Settings	vapor or sublimation pressure [kPa]
[3], 338.12 K	101.3

COC(=O)Oc1ccccc1 [methyl phenyl carbonate] + CO
Settings	mass density, [2] [kg/m3]	refractive index, [1]
x1 = 0.0501	842.07	1.3647
x1 = 0.1001	886.48	1.3885
x1 = 0.2002	953.27	1.4283
x1 = 0.3002	1000.92	1.45
x1 = 0.4003	1036.71	1.467
x1 = 0.5	1064.49	1.4748
x1 = 0.6013	1087.16	1.4801
x1 = 0.7008	1105.28	1.4848
x1 = 0.8003	1120.25	1.4877
x1 = 0.9015	1133.12	1.4915
x1 = 0.9471	1138.14	1.4929

COC(=O)OC [dimethyl carbonate]
Settings	mass density [kg/m3]	refractive index
[3]	1063.26	–
[5]	–	1.3666

Settings	vapor or sublimation pressure [kPa]
[3], 363.25 K	101.3
